Assay results as given in US20250144099A1, “INK4 TUMOR SUPPRESSOR PROTEINS MEDIATE RESISTANCE TO CDK4/6 KINASE INHIBITORS” (MEMORIAL SLOAN-KETTERING CANCER CENTER, priority 2021, published 2025).

Experiments:
[1] = test system: CDK6 expression in PTEN knockdown cells; test: Immunoblotting of CDK6 expression in PTEN knockdown cells; assay type: cell-based, human; design: dose or concentration left out as unconfirmed; conditions: MK-2206 as printed
Method: Cell lysates were collected in RIPA buffer (Thermo Fisher Scientific) supplemented with protease and phosphatase inhibitors (Pierce). Protein concentration was quantified by using the BCA kit (Fisher Scientific). […] of protein lysates were loaded onto 4-12% SDS-PAGE gels (Invitrogen) for electrophoresis and transferred onto nitrocellular membranes. Blots were blocked with Intercept™ (TBS) Blocking Buffer (LI-COR Bioscience #927-60001) and incubated with primary antibody at 4° C. overnight. Secondary antibodies conjugated with fluorescence (LI-COR Bioscience #926-68071 and #926-32210) were incubated for 1 h at room temperature and blots were scanned by Odyssey Clx Imaging System from LI-COR Bioscience.

CDK6 = CDK6 (Homo sapiens, UniProt Q00534); test: IP-in vitro kinase assay (ADP-Glo, Rb substrate) of immunoprecipitated CDK6; assay type: biochemical; design: Upregulation of wild-type CDK6 expression as a recurrent mechanism; endogenous in cells; host or cells: MCF-7 FAT1 CRISPR knockout (CDK6-high) cells; conditions: IP-CDK6 from resistant CDK6-high (FAT1 loss) MCF7 cells, pre-treatment with 100 nM abemaciclib
Chain of CDK6 (Q00534 whole entry): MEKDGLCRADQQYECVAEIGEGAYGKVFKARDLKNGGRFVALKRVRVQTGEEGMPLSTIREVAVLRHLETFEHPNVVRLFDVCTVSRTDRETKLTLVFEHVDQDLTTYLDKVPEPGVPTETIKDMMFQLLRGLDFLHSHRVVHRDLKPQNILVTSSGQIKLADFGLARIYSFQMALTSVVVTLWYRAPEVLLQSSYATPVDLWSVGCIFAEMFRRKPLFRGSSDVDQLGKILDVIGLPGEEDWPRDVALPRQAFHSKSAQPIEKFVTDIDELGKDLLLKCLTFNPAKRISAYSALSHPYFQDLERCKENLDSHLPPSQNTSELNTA
Chain of CDK6 (P30281 whole entry partner): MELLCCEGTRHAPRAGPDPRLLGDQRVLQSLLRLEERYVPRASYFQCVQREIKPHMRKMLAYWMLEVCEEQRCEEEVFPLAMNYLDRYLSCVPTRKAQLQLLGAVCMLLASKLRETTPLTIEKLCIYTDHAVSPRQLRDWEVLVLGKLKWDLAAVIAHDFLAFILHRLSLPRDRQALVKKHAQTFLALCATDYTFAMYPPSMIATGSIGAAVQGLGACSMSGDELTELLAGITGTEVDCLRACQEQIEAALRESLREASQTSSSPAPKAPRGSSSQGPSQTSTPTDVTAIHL
Method: IP-in vitro kinase assay. […] Lysates were collected as described above. […] of cell lysates were incubated with […] CDK4 (# sc-23896, Santa Cruz Biotechnology) or CDK6 (# sc-177-G, Santa Cruz Biotechnology) antibody at 4° C. overnight. 20 μl of ChIP-grade magnetic beads (Thermo Fisher Scientific) was added into each IP tube and incubated for 2 hours. IP samples were washed 2 times with kinase lysis buffer and 2 times with kinase reaction buffer (40 mM Tris-HCl [pH 7.5], 20 mM MgCl2, 0.1 mg/ml BSA, from SignalChem, #K03-09, with […] DTT adding freshly). 100 μl of kinase reaction buffer with 0.5 μg of recombinant human Rb1 protein and 100 μM of ATP was added into each tube.

NC1(c2ccc(-c3nc4ccn5c(=O)[nH]nc5c4cc3-c3ccccc3)cc2)CCC1 [MK-2206]
CDK6 expression [1]: suppressed the expression of CDK6

CCN1CCN(Cc2ccc(Nc3ncc(F)c(-c4cc(F)c5nc(C)n(C(C)C)c5c4)n3)nc2)CC1 [abemaciclib]
CDK6 activity reduced compared to untreated (CDK6): 48%
